Assay results published in a melting point compilation (Tetko et al.; mined from patent text by program, amines drawn as free bases though some values may be those of a salt).

| SMILES | melting point [°C] |
| --- | --- |
| CCN1CCN(CC)c2cc(N)ccc2C1=O | 140 to 141 |
| COC(=O)C1CCCC(=C(N)c2ccc(Cl)cc2)C(=O)C1 (stereo unspecified) | 154 to 155 |
| Clc1ccc2c(c1)N=C(NCCc1cccnc1)c1ccccc1N2 | 195 to 196 |
| O=C(Nc1ccc(S(=O)(=O)C(F)(F)F)cc1Cl)c1cc(Cl)c2ccccc2c1O | 234 |
| CCCCn1nc2c(N)nc3ccccc3c2c1CCS(=O)(=O)CCC | 169 to 171 |
| Cc1ccc(-c2ccc3nc(C)c(C(=O)Nc4ccc(CN(C)C5CCOCC5)cc4)cc3c2)cc1 | 157 to 160 |
| Cn1c(=O)c2[nH]c(C3(N)CCCC3)nc2n(C)c1=O | 288 to 290 |
| CCn1cnc2c(Nc3ccc(C(F)(F)F)cc3)nc(NCCO)nc21 | 191 to 192 |
| CCCCNC(=S)Nc1cc(Cl)ccc1N1CCOCC1 | 150 to 152 |
| CCc1cc([N+](=O)[O-])c(=O)[nH]c1COCc1ccccc1 | 157 to 158 |
| CCCCN(Cc1ccc(-c2ccccc2S(=O)(=O)NC(C)(C)C)cc1)C(=O)Cl | 128 to 129 |
| CC1OC(=O)C2C1C1CCC2(OC(=O)C(C)(C)C)O1 (stereo unspecified) | 114 to 115 |
| Cc1nc(C(F)(F)F)ccc1C(=O)C1=C(Cl)C2CCC(C2)C1=O (stereo unspecified) | 137 to 138 |
| O=C(COc1ccc(CN2CCOCC2)cc1)N1CCN(c2ccc(N3C[C@H](CNC(=S)C4CC4)OC3=O)cc2F)CC1 | 138 to 141 |
| Cc1ccc(C(=O)c2cccc3c2CCC3C(=O)O)cc1 (stereo unspecified) | 128 to 131 |
| Cc1c(C)c(N2CCN(c3ccc(C(C)C)cc3)CC2)c(C)c2c1OC(C)(CO)C2 (stereo unspecified) | 160 to 163 |
| Oc1cnccc1CCCOc1cccnc1Sc1cccc(Br)c1 | 169 to 171 |
| COc1nc(C)c(C)nc1N(C)C(=O)N1CCN(c2cc(C)cc(C)c2)CC1 | 94 to 96 |
| Cc1c2n(c3ccccc13)C(=O)C(C(O)c1ncc[nH]1)CC2 (stereo unspecified) | 199 to 200 |
| CNC(=O)N(O)C(C)C#Cc1ccc(C)cc1 (stereo unspecified) | 137 to 138 |
| CCN1CCN(c2ccnc3sc(C(N)=O)c(N)c23)CC1 | 218 to 219 |
| Oc1cccc(C2CCCN2Cc2ccccc2)c1 (stereo unspecified) | 113 to 115 |
| O=C(c1ccc(F)cc1)C1CCN(CCn2c(=O)[nH]c3cc(F)ccc3c2=O)CC1 | 248 |
| CNC(=O)Oc1cccc(C2CCCN2CCN2C(=O)c3ccccc3C2=O)c1 (stereo unspecified) | 96 to 98 |

| SMILES | melting point [°C] |
| --- | --- |
| Nc1nc(Oc2ccccc2)c2ncn(CCC(CO)CO)c2n1 | 173 to 175 |
| O=C(OCCN1CCCCC1)c1c[nH]c2ccccc12 | 123 to 125 |
| CCCC1(O)CCN(C)C(Cc2ccc(OC)cc2)C1(C)C (stereo unspecified) | 85 to 102 |
| CCC(=O)c1cnc2c(OCCO)cccc2c1Nc1ccc(F)cc1C | 170 to 172 |
| CN(c1ccccc1)c1ccc(-c2nc(C#N)c(C#N)nc2C#N)cc1 | 187 |
| CCCN(CCC)C1Cc2cccc3c2N(C1)C(=O)CN3 (stereo unspecified) | 97 to 99 |
| c1ccc(-c2nn3c(N4CCCC4)nnc3c3ccccc23)cc1 | 245 to 247 |
| COc1ccc(N2C(=O)C(=C3CCCN3C)c3ccccc32)cc1Cl | 126 to 128 |
| Nc1ccc(N(CCO)C(=O)OCc2ccccc2)c(O)c1 | 142 |
| CC(C)c1ccc(C2(NC(=O)c3ccccc3)C(=O)c3ccccc3C2=O)c(OC(=O)c2ccccc2)c1 | 138 to 140 |
| Cc1ccc2cc([N+](=O)[O-])c3ccc(C)nc3c2n1 | 184 to 186 |
| O=C(Nc1ccc2c(c1)C(=O)NC2=O)C(=O)N1CCC(Cc2ccccc2)CC1 | 239 to 241 |
| COc1cc(OC)nc(NC(=O)NS(=O)(=O)c2ncccc2OCCCl)n1 | 156 to 158 |
| CCOCc1nc2c(N)nc(C)c(C)c2n1C1(OC)CCCCC1 | 172 to 173 |
| Nc1nc(Oc2c(Cl)cccc2Cl)nc2nc(-c3ccco3)nn12 | 270 to 272 |
| COC1C(NC(=O)C(F)(F)F)CC(O)OC1C (stereo unspecified) | 185 |
| COc1ccc(Cl)cc1C(=O)c1cc(Cl)ccc1OC | 108 |
| CCOC(=O)c1ccc(OCC2(O)CCN(Cc3ccccc3)CC2)cc1 | 100 |
| COC(=O)c1ccc(CCNCC(O)c2ccccc2)cc1 (stereo unspecified) | 105 to 106 |
| COC(=O)CCC(C)C1CCC2C3CCC4CC(N=[N+]=[N-])CCC4(C)C3CC(=O)C12C (stereo unspecified) | 153 |
| O[C@@H](COCc1ccccc1)[C@H](OCc1ccccc1)[C@@H](OCc1ccccc1)[C@@H](O)COCc1ccccc1 | 52.5 to 53 |
| CCOC(=O)c1ncn2c1CNC(=O)c1cc(F)ccc1-2 | 298 |
| Nc1ccc2c(c1)CN(c1c(F)cc3c(=O)c(C(=O)O)cn(-c4ccc(F)cc4F)c3c1F)C2 | > 300 |
| CCCCCCCS(=O)(=O)c1nn2c(=O)c(C)c(F)nc2s1 | 143 to 146 |

| SMILES | melting point [°C] |
| --- | --- |
| CCOC(=O)c1cnc2c(cnn2-c2ccccc2)c1N(Cc1ccccc1)S(=O)(=O)c1ccc(OC)cc1 | 124 to 126 |
| O=C(NC(c1ccccc1)c1ccccc1)N1CCC(c2ccccc2)(c2ccccc2)CC1 | 232 to 234 |
| CCOC(=O)c1ccc(COc2cccc(O)c2C=O)cc1 | 105 to 107 |
| Clc1ccc2nc3n(c2c1)CCC3 | 136 |
| CCCn1nc(-c2ccc(O)cc2)c2cccc(-c3ccccc3)c21 | 171 to 172 |
| CS(=O)(=O)c1ccc(C2=C(Br)C(=O)C3(CCCC3)O2)cc1 | 127 to 128 |
| Cc1oc(-c2ccccc2)nc1COc1ccc(CON=C(CCCCC(N)=O)c2ccccc2)cc1 | 95 to 96 |
| CCOC(=O)c1ccc(N2CCN(C(=O)c3ccc(Cl)cc3)CC2)cc1 | 147 to 150 |
| Cc1nc2c(O[C@@H]3c4ccccc4C[C@H]3OS(C)(=O)=O)cccn2c1C=O (relative stereo) | 158 to 160 |
| COc1cc(OC)c(Br)cc1O | 78 to 80 |
| O=c1ccc2c(OS(=O)(=O)C(F)(F)F)cccc2o1 | 104 to 105 |
| Nc1nccnc1OCc1cccnc1 | 120 to 122 |
| O=C(O)c1ccc(OCC2CN(c3ccccc3)C(=S)O2)cc1 (stereo unspecified) | 214 to 215 |
| CCOC(=O)N1CCn2c(nc(-c3ccncn3)cc2=O)C(CC)C1 (racemic) | 160 to 162 |
| CCOC(=O)c1cn(Cc2c(F)cccc2F)c2sc(-c3ccccc3)c(CBr)c2c1=O | 206 |
| CC(C)(C)OC(=O)N1CCN(C2=Nc3ccccc3Sc3ccccc32)CC1 | 127 to 130 |
| CC(CC1CNc2nc(N)nc(O)c2C1)c1ccc(C(=O)N[C@@H](CCC(=O)O)C(=O)O)cc1 (stereo partly specified) | > 250 |
| COc1cccc2c1CC(C(=O)O)N2C(=O)OC(C)(C)C (stereo unspecified) | 148 to 150 |
| Clc1ccc(-c2cc(C3CCN(Cc4ccc5ccccc5c4)CC3)n[nH]2)cc1 | 180 to 181 |
| CCS(=O)(=O)N(C)C1CC(C)(C)Oc2ccc(O)cc21 (stereo unspecified) | 160 to 162 |
| COc1ccc(CCN2CC(COc3cccc4c(=O)[nH]ccc34)OC2=O)cc1OC (stereo unspecified) | 173 to 175 |
| COc1ccc2c(c1)c(Cc1nc(-c3ccc([N+](=O)[O-])cc3)cs1)c(C)n2Cc1ccc(Br)cc1 | 205 to 207 |
| O=C1CN=C(c2ccccc2Cl)c2cc(I)ccc2N1 | 260 to 262 |
